System: Cas-1 in primary chondrocytes
Assay: Intracellular imaging in primary chondrocytes
Assay type: cell-based
Conditions: H2O2 2 mM 30, 60, 90 min; FPy1 5 μM 1 h
Protocol: The decline in chondrocyte function plays a crucial role in the pathogenesis of OA. Inflammasome-mediated chondrocyte pyroptosis has been closely associated with matrix degradation and cartilage degeneration in OA.[38] To model OA in vitro, primary chondrocytes were stimulated with H2O2 (2 mM) for different durations, followed by staining with FPy1 (5 μM) and fluorescence imaging to monitor the progression of pyroptosis under oxidative stress. […] To better mimic the in vivo pathological features of OA, primary chondrocytes were also cultured as three-dimensional spheroids and stimulated with H2O2. […] Furthermore, we evaluated the capability of FPy1 to monitor pyroptosis progression at different stages of OA in a mouse model. […] The pathological manifestations in the corresponding tissues became more pronounced with longer modeling periods, consistent with the fluorescence imaging results obtained using FPy1. […]
Chondrocytes were isolated from articular cartilage and resuspended in 1mL DMEM/F12 medium containing 10 μM ITS-A. A total of […] were counted and transferred into centrifuge tubes. […]
The chondrocytes or 3D cell spheroids were seeded in dishes and cultured overnight. […] Fluorescence imaging was then performed with an excitation of 514 nm, and signals were […]

Substance: –FLTDG– [FPy1, RhoB donor, hNR quencher]
- intracellular fluorescence intensity in primary chondrocytes: increased with prolonged H2O2 stimulation

Source: PMC12598616, “Design and optimization of caspase-1-responsive fluorescent probes for pyroptosis imaging and anti-pyroptosis drug screening” (Chemical Science, 2025)
